Experiments:
[1] = test system: Ramos cells; assay: Ramos proliferation assay (XTT); assay type: cell-based; conditions: Homo sapiens, 72 hrs
Description: Cell proliferation assay is a sensitive method for quantification of viable cells in cytotoxicity or proliferation assay. The XTT (2,3-bis[2-Methoxy-4-nitro-5-sulfophenyl]-2 H-tetrazolium-5-carboxyanilide inner salt) system is a means of measuring the activity of living cells via mitochondrial dehydrogenases. Mitochondrial dehydrogenases of viable cells cleave the tetrazolium ring of XTT, yielding orange formazon crystals which are soluble in aqueous solutions. The XTT solution is potentiated by the addition of an electron coupling agent, phenazine methosulphate (PMS) to the reaction. The resulting orange colour is spectrophotometrically measured at 450 nm. An increase or decrease in cell numbers results in a concomitant change in the amount of formazon formed, indicating the degree of cytotoxicity caused by the test material.
Dissolve 17.7 g IMDM (Iscove's Modified Dulbecco's Medium) powder, 1.5 g sodium bicarbonate pH 7.2-7.4 in 1 L MiliQ water, add 1% Pencilin/ Streptomycin and 10% FBS.
Dissolve 10.6 g Ham's F12 powder, 1.5 g sodium bicarbonate pH 7.2-7.4 in 1 L MiliQ water, add 1% Penicillin/Streptomycin. DMSO used as vehicle.
Ramos cells were re-suspended to a density of 1×10^5 cells/ ml in complete IMDM medium. 95 μL of this cell suspension was added to the 96-well plate to seed ˜10,000 cells per well. The plates were incubated at 37° C. under a humidified atmosphere of 5% CO2 for ˜1 hour before compound addition.
Test compounds (Refer to Table 1) were dissolved in 100% DMSO to generate a 2/6/10/20 mM stock solution. A 200× concentration of the required final concentrations was prepared in DMSO. 10 μL of each concentration (200×) was then diluted in 90 μL of serum-free Ham's F12 medium to get an intermediate concentration of 20× in medium. The DMSO concentration in this step is 10% (Intermediate dilution). 5 μL of each intermediate dilution was then added in triplicates in the previously seeded 96-well plate. The final DMSO concentration was 0.5% in the experimental wells. Cells treated with 0.5% DMSO served as positive control. 100 μL, of complete IMDM medium served as media blank for data analysis. 200 μL, of 1× PBS was added in all corner wells of the assay plate. Plates were then incubated for 72 hrs in an incubator with 5% CO2 at 37° C.
On termination day, 100 μl of XTT solution (1 mg/ml XTT supplemented with 25 μM PMS in Ham's F12 medium) was added to each well. Plates were incubated for 2 hrs. The amount of formazon produced was determined by reading the absorbance of the plate using VICTOR X5 multilabel plate reader at wavelength of 450 nm. The IC50 values were determined as concentrations that reduced cell viability by 50% and the curve was plotted with GraphPad Prism 6.0.
Percent (%) Inhibition was calculated by normalizing DMSO control values to 100% using the formula: % Inhibition=[…](Abs450test compound−blank)/(Abs450positive control−blank)*100
Test compound contains cells, test compound, IMDM medium and 0.5% DMSO
Positive control contains cells, IMDM medium and 0.5% DMSO
Blank contains IMDM medium

[2] = test system: AML_2 tumor; assay: Patient-derived AML xenograft model AML_2; assay type: in vivo, CB17 SCID mice; conditions: 100 mg/kg BID PO
Procedure: (§1) A screen was next performed using a small number of mice/group to assess efficacy of Compound 1 in AML and DLBCL patient-derived xenograft models. Tumor-bearing mice (n=3/group) were treated with vehicle or Compound 1 at 100 mg/kg BID PO.

[3] = test system: AML_5 tumor; assay: Patient-derived AML xenograft model AML_5; assay type: in vivo, CB17 SCID mice; conditions: AML 5 patient-derived xenograft, 100 mg/kg BID PO
Procedure: as §1

[4] = test system: HCC1806; assay: Triple negative breast cancer cell line panel, 96 hours; assay type: cell-based, human; conditions: HCC1806, 96 hours
Description: (§2) A panel of triple negative cancer cell lines (TNBC) were screened to evaluate whether a subset of TNBC could potentially benefit from treatment with compound 1 as a single agent.

[5] = test system: HCC1143; assay: as above; assay type: cell-based, human; conditions: HCC1143, 96 hours
Description: as §2

[6] = test system: BTS49; assay: as above; assay type: cell-based, human; conditions: BTS49, 96 hours
Description: as §2

[7] = test system: HCC38; assay: as above; assay type: cell-based, human; conditions: HCC38, 96 hours
Description: as §2

[8] = test system: MINO; assay: Tumor cell line panel screen, 72 hrs; assay type: cell-based; conditions: Homo sapiens, mantle cell lymphoma
Procedure: (§3) A tumor cell line panel screen aimed at identifying tumor cell subsets that were particularly sensitive to inhibition of DHODH with Compound 1 was performed. Compound 1 is represented by the following structural formula: […]
(§4) These cell lines were treated with Compound 1 for a total of 72 hrs.
(§5) Table 1 is a list of some of the sensitive cell lines to Compound 1 along with GI50 values and max growth response. A maximum inhibition of 100 represents complete growth inhibition; a max inhibition value>100 represents cell killing.

[9] = test system: JYSE150; assay: Tumor cell line panel screen, 72 hrs; assay type: cell-based; conditions: Homo sapiens, JYSE150, esophageal squamous cell carcinoma
Procedure: as §3, §4, §5

[10] = test system: DU4475; assay: Tumor cell line panel screen, 72 hrs; assay type: cell-based; conditions: Homo sapiens, DU-4475, DU4475, triple negative breast cancer
Procedure: as §3, §4, §5

[11] = test system: JVM13; assay: Tumor cell line panel screen, 72 hrs; assay type: cell-based; conditions: Homo sapiens, JVM13, B-prolymphocytic leukemia
Procedure: as §3, §4, §5

[12] = test system: RL; assay: Tumor cell line panel screen, 72 hrs; assay type: cell-based; conditions: Homo sapiens, non-Hodgkin's lymphoma
Procedure: as §3, §4, §5

[13] = test system: OCILY8; assay: Tumor cell line panel screen, 72 hrs; assay type: cell-based; conditions: Homo sapiens, OCI-Ly8, OCILY8, diffuse large B cell lymphoma
Procedure: as §3, §4, §5

[14] = test system: DU145; assay: Tumor cell line panel screen, 72 hrs; assay type: cell-based; conditions: Homo sapiens, DU-145, DU145, prostate cancer
Procedure: as §3, §4, §5

[15] = test system: AML and DLBCL patient-derived xenograft models; assay: AML and DLBCL patient-derived xenograft models (all models); assay type: in vivo, CB17 SCID mice; conditions: all five AML and two DLBCL patient-derived models, 100 mg/kg BID PO
Procedure: as §1

[16] = test system: CARNAVAL; assay: Double-hit DLBCL 96-hr growth assay; assay type: cell-based, human
Procedure: (§6) FIG. 8 is a curve showing the relative growth rate of OCILY18, SC-1 and CARNAVAL double hit diffuse large B cell lymphoma (DLBCL) cell lines treated with various concentrations of Compound 1 for 96 hours.

[17] = test system: SC-1; assay: Double-hit DLBCL 96-hr growth assay; assay type: cell-based, human; conditions: SC-1, double-hit DLBCL
Procedure: as §6

[18] = test system: OCILY18; assay: Double-hit DLBCL 96-hr growth assay; assay type: cell-based, human
Procedure: as §6

Cc1ccccc1-c1ccc(-c2cc(C(=O)O)c3c(c2)nnn3C)cc1 [Compound 1, 1-methyl-5-(2′-methyl-[1,1′-biphenyl]-4-yl)-1H-benzo[d][1,2,3]triazole-7-carboxylic Acid]
inhibition at 30 µM ([1]; 30 μM, read-out: Maximum % Inhibition at 30 μM): 107%
IC50 ([1]; XTT): 49 nM
TGI [2]: > 60%
TGI [3]: > 60%
Sensitivity [4]: insensitive
Sensitivity [5]: insensitive
Sensitivity [6]: insensitive
Sensitivity [7]: insensitive
GI50 [8]: 30 nM
GI50 [9]: 100 nM
GI50 [10]: 100 nM
GI50 [11]: 20 nM
GI50 [12]: 80 nM
GI50 [13]: 20 nM
GI50 [14]: 480 nM
Anti-tumor activity [15]: anti-tumor activity of Compound 1 was observed
Sensitivity to growth inhibition [16]: highly sensitive
Sensitivity to growth inhibition [17]: highly sensitive
Sensitivity to growth inhibition [18]: highly sensitive
